Laboratory results from patent US20250361230A1, “LATS Inhibitors and Uses Thereof” (The USA, as Represented by the Secretary, Dept. of Heath …, priority 2022, published 2025).

Key:
LATS2 = target: T1, LATS2 (Homo sapiens, UniProt Q9NRM7); experiment: RBC HotSpot kinase assay (33P-ATP, P81 filter-binding), LATS2; type: biochemical; settings: biochemical kinase inhibition; read-out: LATS2 IC50
T1 sequence (Q9NRM7 1-1088): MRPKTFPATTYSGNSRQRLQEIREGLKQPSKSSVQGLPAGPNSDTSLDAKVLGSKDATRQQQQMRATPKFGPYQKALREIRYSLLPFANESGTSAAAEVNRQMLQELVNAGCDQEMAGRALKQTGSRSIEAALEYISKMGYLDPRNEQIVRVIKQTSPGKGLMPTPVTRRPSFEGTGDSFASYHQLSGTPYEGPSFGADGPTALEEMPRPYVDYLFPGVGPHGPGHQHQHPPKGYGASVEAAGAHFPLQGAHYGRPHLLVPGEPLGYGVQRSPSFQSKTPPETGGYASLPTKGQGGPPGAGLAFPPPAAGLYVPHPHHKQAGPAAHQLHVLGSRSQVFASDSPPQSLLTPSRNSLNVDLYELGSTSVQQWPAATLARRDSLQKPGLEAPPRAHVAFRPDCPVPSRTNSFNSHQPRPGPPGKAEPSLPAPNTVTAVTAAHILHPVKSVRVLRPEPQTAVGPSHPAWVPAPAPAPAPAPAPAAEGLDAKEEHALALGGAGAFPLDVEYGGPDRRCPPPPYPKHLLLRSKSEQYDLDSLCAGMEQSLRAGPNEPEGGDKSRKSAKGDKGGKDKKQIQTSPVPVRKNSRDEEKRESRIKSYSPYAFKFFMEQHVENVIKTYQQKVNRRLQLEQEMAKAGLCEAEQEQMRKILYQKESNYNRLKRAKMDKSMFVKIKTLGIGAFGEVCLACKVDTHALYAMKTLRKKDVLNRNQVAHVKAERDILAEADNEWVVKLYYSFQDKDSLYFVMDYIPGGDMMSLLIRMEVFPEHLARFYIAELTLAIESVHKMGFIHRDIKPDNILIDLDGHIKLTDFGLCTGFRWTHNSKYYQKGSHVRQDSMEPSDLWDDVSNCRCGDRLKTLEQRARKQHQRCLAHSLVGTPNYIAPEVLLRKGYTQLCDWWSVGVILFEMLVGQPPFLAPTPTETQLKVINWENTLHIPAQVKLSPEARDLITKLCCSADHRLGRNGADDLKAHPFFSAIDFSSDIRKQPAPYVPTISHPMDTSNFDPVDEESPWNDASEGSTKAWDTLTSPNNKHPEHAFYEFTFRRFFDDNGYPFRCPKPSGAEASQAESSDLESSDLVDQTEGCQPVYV
Method in brief: (§1)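 IC50 in nM was derived from 10-point, single-replicate titrations. Read-out was radiometric P81 filter binding following a 2 h room-temperature reaction with 33P-ATP, after 20 min compound preincubation.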

LATS1 = target: T2, LATS1 (Homo sapiens, UniProt O95835); experiment: RBC HotSpot kinase assay (33P-ATP, P81 filter-binding), LATS1; type: biochemical; settings: biochemical kinase inhibition; read-out: LATS1 IC50
T2 sequence (O95835 1-1130): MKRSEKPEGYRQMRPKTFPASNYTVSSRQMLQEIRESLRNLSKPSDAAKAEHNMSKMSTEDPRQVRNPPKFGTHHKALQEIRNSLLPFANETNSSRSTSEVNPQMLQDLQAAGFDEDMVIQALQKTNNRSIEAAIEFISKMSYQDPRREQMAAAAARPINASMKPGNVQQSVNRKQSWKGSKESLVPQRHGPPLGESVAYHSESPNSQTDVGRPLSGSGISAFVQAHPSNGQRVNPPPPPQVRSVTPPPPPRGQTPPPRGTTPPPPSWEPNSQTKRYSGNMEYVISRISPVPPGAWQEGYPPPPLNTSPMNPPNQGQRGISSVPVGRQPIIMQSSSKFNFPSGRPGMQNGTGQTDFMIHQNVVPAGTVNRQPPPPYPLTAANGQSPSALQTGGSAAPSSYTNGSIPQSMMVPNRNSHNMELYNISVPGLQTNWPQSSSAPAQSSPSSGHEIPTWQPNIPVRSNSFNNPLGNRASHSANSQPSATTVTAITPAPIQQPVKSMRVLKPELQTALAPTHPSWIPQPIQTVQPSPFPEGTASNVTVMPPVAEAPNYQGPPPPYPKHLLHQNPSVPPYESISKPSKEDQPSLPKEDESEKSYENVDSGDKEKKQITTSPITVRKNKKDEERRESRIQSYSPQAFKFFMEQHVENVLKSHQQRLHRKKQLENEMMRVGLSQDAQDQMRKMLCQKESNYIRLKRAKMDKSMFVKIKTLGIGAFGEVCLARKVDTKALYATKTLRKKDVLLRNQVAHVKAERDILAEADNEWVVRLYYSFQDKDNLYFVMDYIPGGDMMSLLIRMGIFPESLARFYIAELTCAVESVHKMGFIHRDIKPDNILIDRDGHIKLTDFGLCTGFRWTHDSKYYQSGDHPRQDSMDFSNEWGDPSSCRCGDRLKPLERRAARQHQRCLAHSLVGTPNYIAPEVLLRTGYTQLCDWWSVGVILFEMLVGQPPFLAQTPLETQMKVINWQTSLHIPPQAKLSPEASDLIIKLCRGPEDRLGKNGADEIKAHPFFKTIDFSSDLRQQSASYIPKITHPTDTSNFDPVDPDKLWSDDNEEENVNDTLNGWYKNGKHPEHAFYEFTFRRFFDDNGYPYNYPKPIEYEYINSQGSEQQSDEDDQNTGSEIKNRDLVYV
Method in brief: as §1

- IC50 (LATS2): 2.6 nM
- IC50 (LATS1): 5.6 nM
Compound: Cc1cc(-c2ccnc3[nH]cc(C#N)c23)ccc1[C@@]1(O)[C@H](C)CN(C2CCS(=O)(=O)CC2)C[C@@H]1C [Compound 2003, 4-(4-((3S,4s,5R)-1-(1,1-dioxidotetrahydro-2H-thiopyran-4-yl)-4-hydroxy-3,5-dimethylpiperidin-4-yl)-3-methylphenyl)-1H-pyrrolo[2,3-b]pyridine-3-carbonitrile]
